Results taken from PMC12216525, “Characterization of glutamine synthetase involved in the fecundity of Rhopalosiphum padi” (Scientific Reports, 2025).

Tested on: RpGS1
Conditions: read-out: RpGS1; 0.5-15 mM sodium glutamate; ATP, hydroxylamine, Mg2+ in solution B pH 7.4; 37 C; called purified in the discussion, methods describe protein released by ultrasonication

- Km: 580 µM
Compound: N[C@@H](CCC(=O)O)C(=O)O [sodium glutamate]
